Test results: US20230219904A1 (SYNGENTA CROP PROTECTION AG, priority 2020, published 2023)

Legend:
Assay type in all cases: in vivo
Conditions in all cases: evaluated after 13 days
[1] = test system: Amaranthus retoflexus (AMARE); test: Pre-emergence herbicidal glasshouse test (Table B1)
Summary of the method: (§1)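 In this pot assay, seedlings or sown soil receive a spray of formulated active ingredient (acetone/water 50:50, 0.5% Tween 20) at 500 g/h unless indicated. Conditions: 24/16° C day/night, 14 hours light, 65% humidity, watering twice daily. Injury is scored after 13 days, 1 (0-19%) to 5 (80-100%).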

[2] = test system: Abutilon theophrasti (ABUTH); test: as above
Summary of the method: as §1

Setaria faberi (SETFA) [3] = test: as above
Summary of the method: as §1

[4] = test system: Ipomoea hederacea (IPOHE); test: as above
Summary of the method: as §1

[5] = test system: Amaranthus retoflexus (AMARE); test: Post-emergence herbicidal glasshouse test (Table B1)
Summary of the method: as §1

[6] = test system: Abutilon theophrasti (ABUTH); test: as above
Summary of the method: as §1

[7] = test system: Echinochloa crus-galh (ECHCG); test: as above
Summary of the method: as §1

Setaria faberi (SETFA) [8] = test: as above
Summary of the method: as §1

[9] = test system: Ipomoea hederacea (IPOHE); test: as above
Summary of the method: as §1

[10] = test system: Echinochloa crus-galh (ECHCG); test: Pre-emergence herbicidal glasshouse test (Table B1)
Summary of the method: as §1

Row | Compound | PRE Application AMARE, percentage damage on five-point scale ([1]; applied at 125 g/ha) | PRE Application ABUTH, percentage damage on five-point scale ([2]; applied at 125 g/ha) | PRE Application SETFA, percentage damage on five-point scale (Setaria faberi (SETFA) [3]; applied at 125 g/ha) | PRE Application IPOHE, percentage damage on five-point scale ([4]; applied at 125 g/ha) | POST Application AMARE, percentage damage on five-point scale ([5]; applied at 125 g/ha) | POST Application ABUTH, percentage damage on five-point scale ([6]; applied at 125 g/ha) | POST Application ECHCG, percentage damage on five-point scale ([7]; applied at 125 g/ha) | POST Application SETFA, percentage damage on five-point scale (Setaria faberi (SETFA) [8]; applied at 125 g/ha) | POST Application IPOHE, percentage damage on five-point scale ([9]; applied at 125 g/ha) | PRE Application ECHCG, percentage damage on five-point scale ([10]; applied at 125 g/ha) | PRE Application AMARE, percentage damage on five-point scale ([1]; applied at 500 g/h) | PRE Application ABUTH, percentage damage on five-point scale ([2]; applied at 500 g/h) | PRE Application ECHCG, percentage damage on five-point scale ([10]; applied at 500 g/h) | PRE Application SETFA, percentage damage on five-point scale (Setaria faberi (SETFA) [3]; applied at 500 g/h) | POST Application AMARE, percentage damage on five-point scale ([5]; applied at 500 g/h) | POST Application ABUTH, percentage damage on five-point scale ([6]; applied at 500 g/h) | POST Application ECHCG, percentage damage on five-point scale ([7]; applied at 500 g/h) | POST Application SETFA, percentage damage on five-point scale (Setaria faberi (SETFA) [8]; applied at 500 g/h) | POST Application IPOHE, percentage damage on five-point scale ([9]; applied at 500 g/h) | PRE Application IPOHE, percentage damage on five-point scale ([4]; applied)
1 | Cn1nnnc1NC(=O)c1ccc(OC(F)F)c(NC(=O)c2ncc(F)cc2F)c1Cl [Compound 1.089] | 5 (5=80-100%) | 2 (2=20-39%) | 3 (3=40-59%) | 3 (3=40-59%) | 4 (4=60-79%) | 3 (3=40-59%) | 2 (2=20-39%) | 4 (4=60-79%) | 3 (3=40-59%) |  |  |  |  |  |  |  |  |  |  | 
2 | CCC(=O)N(CC)c1c(OC(F)F)ccc(C(=O)Nc2nnnn2CC)c1Cl [Compound 1.095] | 5 (5=80-100%) | 5 (5=80-100%) | 4 (4=60-79%) | 4 (4=60-79%) | 5 (5=80-100%) |  | 5 (5=80-100%) | 5 (5=80-100%) | 4 (4=60-79%) | 5 (5=80-100%) |  |  |  |  |  |  |  |  |  | 
3 | CCC(=O)Nc1c(OC(F)F)ccc(C(=O)Nc2nnnn2C)c1C(F)(F)F [Compound 1.096] | 4 (4=60-79%) | 3 (3=40-59%) | 1 (1=0-19%) | 3 (3=40-59%) | 4 (4=60-79%) |  | 4 (4=60-79%) | 3 (3=40-59%) | 3 (3=40-59%) | 1 (1=0-19%) |  |  |  |  |  |  |  |  |  | 
4 | CCC(=O)N(C)c1c(OC(F)F)ccc(C(=O)Nc2nnnn2CC)c1Cl [Compound 1.097] | 5 (5=80-100%) | 5 (5=80-100%) | 4 (4=60-79%) | 5 (5=80-100%) | 4 (4=60-79%) |  | 4 (4=60-79%) | 5 (5=80-100%) | 4 (4=60-79%) | 5 (5=80-100%) |  |  |  |  |  |  |  |  |  | 
5 | CCn1nnnc1NC(=O)c1ccc(OC(F)(F)F)c(NC(=O)C(C)(C)C)c1Cl [Compound 1.106] |  |  |  |  |  |  |  |  |  |  | 5 (5=80-100%) | 5 (5=80-100%) | 5 (5=80-100%) | 5 (5=80-100%) | 5 (5=80-100%) | 5 (5=80-100%) | 5 (5=80-100%) | 5 (5=80-100%) | 5 (5=80-100%) | 
6 | Cn1nnnc1NC(=O)c1ccc(OC(F)(F)C(F)F)c(NC(=O)C2CC2)c1Cl [Compound 1.110] |  |  |  |  |  |  |  |  |  |  | 5 (5=80-100%) | 3 (3=40-59%) | 5 (5=80-100%) | 5 (5=80-100%) | 5 (5=80-100%) |  | 5 (5=80-100%) | 5 (5=80-100%) | 5 (5=80-100%) | 1 (1=0-19%)
